These are literature values, as cited in patent US20090082464A1, “EXTERNALLY MASKED NEOPENTYL SULFONYL ESTER CYCLIZATION RELEASE PRODRUGS OF ACAMPROSATE, COMPOSITIONS THEREOF, AND METHODS OF USE” (priority 2007, published 2009).

Molecules are shown by their SMILES.

For one series, the system named is cocaine conditioned mice. The conditions noted are these: 100 mg/kg for 3 days.

`CC(=O)NCCCS(=O)(=O)O` [acamprosate, 3-(Acetylamino)propylsulfonic acid]: the relapse-like behavior result in the series with cocaine conditioned mice is recorded as “attenuated relapse-like behavior”. In addition, under “doses of about 1-2 gm per day”, the steady-state plasma concentration was 370 to 640 ng/mL and the “time post-dose at which steady-state plasma concentration occurs” value is 3 to 8 h. Under “humans, oral”, the “oral bioavailability of acamprosate” value is listed as “about 11%”.
